Values belong to the compound of their own block, whether it stands above or below them.
Key:
[1] = test system: thermostable luciferase; assay: Stabilization of luminescent signal using luciferase inhibitors; settings: 100 micromolar inhibitor; CYP1A1 with Luciferin chloroethyl ether; read for 1 hour
Procedure: FIG. 17. Stabilization of luminescent signals using luciferase inhibitors. […] Luminescence was read immediately and at subsequent 5 minute intervals for 1 hour.
(AMBT) or 2-(4-aminophenyl)-6-methylbenzothiazole (APMBT), were evaluated to determine their effect on stabilizing a luminescent signal.
Luminescence was read immediately and at subsequent 5 minute intervals for 1 hour.

[2] = target: T1, CYP1A1 (Homo sapiens, UniProt P04798); assay: Two-step luminescent CYP450 inhibition assay; format: biochemical; set-up: purchased GenTest (Woburn, Mass.); host or cells: Sf9 insect cells; settings: substrate Luc CEE; 50 microliter reaction, 1 picomole CYP450; read-out: IC50 of known CYP450 substrate against CYP1A1/Luc CEE
T1 sequence (P04798 1-512): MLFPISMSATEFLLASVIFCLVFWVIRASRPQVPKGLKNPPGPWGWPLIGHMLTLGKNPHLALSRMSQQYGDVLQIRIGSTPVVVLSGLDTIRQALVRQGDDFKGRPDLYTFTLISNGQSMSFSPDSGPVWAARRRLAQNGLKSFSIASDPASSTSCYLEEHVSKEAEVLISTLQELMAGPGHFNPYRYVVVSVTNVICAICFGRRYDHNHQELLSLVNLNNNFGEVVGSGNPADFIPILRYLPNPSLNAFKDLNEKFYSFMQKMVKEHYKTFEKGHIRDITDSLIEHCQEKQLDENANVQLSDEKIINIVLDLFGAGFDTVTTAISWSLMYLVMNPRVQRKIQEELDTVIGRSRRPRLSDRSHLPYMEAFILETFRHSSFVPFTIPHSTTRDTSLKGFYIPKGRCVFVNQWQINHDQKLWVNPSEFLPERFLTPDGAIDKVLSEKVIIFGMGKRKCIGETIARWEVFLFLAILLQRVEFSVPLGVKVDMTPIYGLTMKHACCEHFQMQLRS
Procedure: After an initial incubation period at 37° C.
Luciferin derivatives as substrates for luminescent CYP450 assays would be useful as probes for detecting other CYP450 substrates. Because two distinct substrates for the same CYP450 isoform will likely compete for the active site, it is possible to characterize known substrates and to identify novel substrates by observing their capacity to inhibit the luminescent reactions with luciferin derivatives. […] The drugs inhibited the reactions in a dose-dependent manner, thus verifying the expectation that CYP450 substrates can be detected by these luminescent assays (see table below). IC50s were calculated by non-linear regression analysis with the program GraphPad PRISM™ (San Diego, Calif.). The reactions were performed as described in Example 2 except the first step (CYP450 reaction) was in a 50 microliter reaction volume with 1 picomole of CYP450. In the second step a 50 microliter luciferase reaction was added to give final concentrations of 50 micrograms/mL recombinant, mutant of firefly luciferase from Photuris pennsylvanica from Promega (17), 200 micromolar ATP, 0.1% tergitol (v/v), 4.0 mM MgSO4 and 100 mM Tricine pH 8.4. FIGS. 11(a)-(c) illustrate the actual inhibition curves.

[3] = target: T2, CYP1A2 (Homo sapiens, UniProt P05177); assay: Two-step CYP450/Renilla reaction, coelenterazine derivative evaluation; format: biochemical; settings: 60 min at 37° C.
T2 sequence (P05177 1-516): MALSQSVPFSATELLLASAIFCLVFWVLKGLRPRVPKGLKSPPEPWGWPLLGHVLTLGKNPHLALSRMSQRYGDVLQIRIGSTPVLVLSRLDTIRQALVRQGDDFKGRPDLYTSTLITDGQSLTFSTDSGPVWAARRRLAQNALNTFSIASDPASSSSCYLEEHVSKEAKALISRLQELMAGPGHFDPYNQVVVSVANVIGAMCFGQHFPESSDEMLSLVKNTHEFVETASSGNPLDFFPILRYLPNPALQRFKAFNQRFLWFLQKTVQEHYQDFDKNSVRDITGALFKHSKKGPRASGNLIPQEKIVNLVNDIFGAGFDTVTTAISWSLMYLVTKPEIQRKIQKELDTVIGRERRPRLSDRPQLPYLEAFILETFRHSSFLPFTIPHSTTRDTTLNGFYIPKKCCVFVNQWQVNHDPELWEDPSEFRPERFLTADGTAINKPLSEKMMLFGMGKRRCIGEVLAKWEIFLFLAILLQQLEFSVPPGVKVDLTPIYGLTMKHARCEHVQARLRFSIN
Procedure: (§1) In this Example, P450 activity was determined using coelenterazine and coelenterazine derivatives, methoxy-coelenterazine HH and coelenterazine HH, in a two-step reaction system. In these assays, P450 acts on the coelenterazine or coelenterazine derivatives in one of two ways. […] An example of this type of coelenterazine derivative is methoxy-coelenterazine HH. […] In both types of assay it is possible to detect P450 activity either directly by a change in chemiluminescence or indirectly by a change in bioluminescence from a Renilla-type luciferase.
(§2) […]; 625 mM KCl; 0.125 mM EDTA pH 8.0; 0.25% Triton X-100; 0.125% Mazu; 1.25% Glycerol; 0.25 mg/mL gelatin to the P450 reactions. Renilla luciferase (1.2 ng/mL) (purchased from Chemicon) was added for detection of bioluminescence of P450 altered coelenterazine or coelenterazine derivatives.

[4] = target: T3, CYP2E1 (Homo sapiens, UniProt P05181); assay: as above; format: biochemical; settings: 60 min at 37° C.; 3 micromolar substrate
T3 construct: purchased GenTest (Woburn, Mass.); host or cells: Sf9 insect cells, baculovirus
T3 sequence (P05181 whole entry): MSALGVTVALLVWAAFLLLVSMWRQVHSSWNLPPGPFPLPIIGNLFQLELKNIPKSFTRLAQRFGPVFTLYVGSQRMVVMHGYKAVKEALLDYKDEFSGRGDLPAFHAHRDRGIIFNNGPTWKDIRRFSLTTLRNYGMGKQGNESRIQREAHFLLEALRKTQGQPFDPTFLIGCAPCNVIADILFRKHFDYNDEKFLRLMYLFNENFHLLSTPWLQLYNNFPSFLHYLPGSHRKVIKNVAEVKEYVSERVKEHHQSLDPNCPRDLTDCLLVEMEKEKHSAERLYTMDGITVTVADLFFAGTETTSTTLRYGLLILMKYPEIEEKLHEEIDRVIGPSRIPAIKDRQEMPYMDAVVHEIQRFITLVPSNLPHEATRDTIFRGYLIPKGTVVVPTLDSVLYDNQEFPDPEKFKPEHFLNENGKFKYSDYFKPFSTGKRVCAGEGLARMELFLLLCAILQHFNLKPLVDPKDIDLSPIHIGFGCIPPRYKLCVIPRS
Procedure: as §1, §2

[5] = target: T4, CYP2B6 (Homo sapiens, UniProt P20813); assay: as above; format: biochemical; settings: 60 min at 37° C.; 10 micromolar substrate
T4 construct: purchased GenTest (Woburn, Mass.); host or cells: Sf9 insect cells, baculovirus
T4 sequence (P20813 1-491): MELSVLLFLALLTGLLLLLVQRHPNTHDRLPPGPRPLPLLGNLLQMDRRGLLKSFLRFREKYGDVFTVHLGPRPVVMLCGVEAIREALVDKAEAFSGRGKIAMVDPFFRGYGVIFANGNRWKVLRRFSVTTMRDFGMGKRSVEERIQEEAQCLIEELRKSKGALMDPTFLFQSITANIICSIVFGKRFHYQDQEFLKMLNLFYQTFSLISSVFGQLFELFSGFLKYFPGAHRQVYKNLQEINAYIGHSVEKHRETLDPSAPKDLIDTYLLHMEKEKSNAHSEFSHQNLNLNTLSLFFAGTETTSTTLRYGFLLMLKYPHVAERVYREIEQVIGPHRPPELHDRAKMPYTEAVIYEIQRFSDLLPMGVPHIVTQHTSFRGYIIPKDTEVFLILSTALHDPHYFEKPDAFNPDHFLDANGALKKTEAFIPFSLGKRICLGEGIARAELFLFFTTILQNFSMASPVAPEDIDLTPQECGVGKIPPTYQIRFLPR
Procedure: as §1, §2

[6] = target: T5, CYP2C19 (Homo sapiens, UniProt P33261); assay: as above; format: biochemical; settings: 60 min at 37° C.; 10 micromolar substrate
T5 construct: purchased GenTest (Woburn, Mass.); host or cells: Sf9 insect cells, baculovirus
T5 sequence (P33261 whole entry): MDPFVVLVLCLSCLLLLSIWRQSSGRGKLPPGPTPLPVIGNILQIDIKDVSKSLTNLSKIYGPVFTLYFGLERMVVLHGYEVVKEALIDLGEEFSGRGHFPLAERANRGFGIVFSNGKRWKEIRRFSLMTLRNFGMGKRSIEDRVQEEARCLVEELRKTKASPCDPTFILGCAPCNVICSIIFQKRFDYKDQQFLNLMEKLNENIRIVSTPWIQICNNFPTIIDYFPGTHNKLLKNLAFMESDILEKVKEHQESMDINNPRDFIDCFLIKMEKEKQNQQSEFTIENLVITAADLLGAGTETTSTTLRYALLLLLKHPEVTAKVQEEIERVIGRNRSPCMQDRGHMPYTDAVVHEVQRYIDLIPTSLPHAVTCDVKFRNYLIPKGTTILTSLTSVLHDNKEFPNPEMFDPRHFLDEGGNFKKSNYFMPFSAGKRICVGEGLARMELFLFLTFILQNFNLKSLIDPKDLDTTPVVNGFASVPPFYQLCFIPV
Procedure: as §1, §2

[7] = target: T1, CYP1A1; assay: as above; format: biochemical; set-up: purchased GenTest (Woburn, Mass.); host or cells: baculovirus-infected insect cells; settings: 60 min at 37° C.; 10 micromolar substrate
Procedure: as §1, §2

SMILES: Cc1ccc2nc(-c3ccc(N)cc3)sc2c1 [APMBT, 2-(4-aminophenyl)-6-methylbenzothiazole]
Effect on luminescent signal in a luminescent CYP450 assay [1]: stabilizes the luminescent signal

IC50 [2]: 21 µM
SMILES: CCOc1ccc(NC(C)=O)cc1 [Phenacetin, phenacetin]

Change in chemiluminescence and bioluminescence after incubation with CYP1A2 ([3]; 3 micromolar substrate): significant reduction
Change in chemiluminescence and bioluminescence after incubation with CYP2E1 [4]: significant reduction
SMILES: O=c1c(Cc2ccccc2)nc2c(Cc3ccccc3)[nH]c(-c3ccccc3)cn1-2 [coelenterazine HH, 2,8-Dibenzyl-6-phenyl-7H-imidazo[1,2-a]pyrazin-3-one]

Increase in chemiluminescence and bioluminescence with CYP1A2 (+P450 RLU/-P450 RLU) ([3]; 10 micromolar substrate): 2-5 ×
Increase in chemiluminescence and bioluminescence with CYP2B6 (+P450 RLU/-P450 RLU) [5]: 2-5 ×
Increase in chemiluminescence and bioluminescence with CYP2C19 (+P450 RLU/-P450 RLU) [6]: 2-5 ×
Change in chemiluminescence and bioluminescence after incubation with CYP1A1 [7]: large increase
SMILES: COc1c(Cc2ccccc2)nc2c(Cc3ccccc3)nc(-c3ccccc3)cn12 [methyl-coelenterazine HH, 2,8-Dibenzyl-3-methoxy-6-phenyl-imidazo[1,2-a]pyrazine]
